This is an account of results in patent publication US12264134B2 (Merck Sharp & Dohme LLC, priority 2018, dated 2025).

In general, IC50 refers to the point on the concentration scale where inhibition reaches its midpoint.

Chain of IDO1 (P14902 whole entry): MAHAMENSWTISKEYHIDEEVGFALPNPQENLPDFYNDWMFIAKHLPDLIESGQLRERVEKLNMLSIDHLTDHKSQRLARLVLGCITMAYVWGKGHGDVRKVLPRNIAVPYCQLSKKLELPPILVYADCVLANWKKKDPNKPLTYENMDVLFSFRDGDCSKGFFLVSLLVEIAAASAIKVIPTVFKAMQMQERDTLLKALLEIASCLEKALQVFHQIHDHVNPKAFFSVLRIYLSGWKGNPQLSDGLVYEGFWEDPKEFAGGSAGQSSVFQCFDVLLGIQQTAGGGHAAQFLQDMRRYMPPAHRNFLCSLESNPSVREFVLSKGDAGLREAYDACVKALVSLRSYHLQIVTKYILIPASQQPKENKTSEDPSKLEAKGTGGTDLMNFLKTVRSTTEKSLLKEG

The experiment has as its target IDO1 (Homo sapiens, UniProt P14902). As to the kind of experiment: IDO1 Cellular Assay in HeLa Cells Stimulated with IFNγ. The experiment is classed as cell-based. The settings on record: read-out: HeLa Cell Potency, IC50.
Turning to `Cc1cccc(N2CCN(C(=O)Cn3nc(C(=O)N4C[C@@H](O)[C@@H](O)C4)c4c3CCC4)CC2)c1C` [Example 308, 2-{3-[(3R,4S)-3,4-dihydroxypyrrolidine-1-carbonyl]-5,6-dihydrocyclopenta[c]pyrazol-1(4H)-yl}-1-[4-(2,3-dimethylphenyl)piperazin-1-yl]ethan-1-one], the IC50 is 400 nM.

For the compound `Cc1cccc(N2CCN(C(=O)Cn3nc(C(=O)N4C[C@H](O)[C@@H](O)C4)c4c3CCC4)CC2)c1C` [Example 309, 2-{3-[(3S,4S)-3,4-dihydroxypyrrolidine-1-carbonyl]-5,6-dihydrocyclopenta[c]pyrazol-1(4H)-yl}-1-[4-(2,3-dimethylphenyl)piperazin-1-yl]ethan-1-one], the IC50 is 410 nM. Turning to `Cc1cccc(N2CCN(C(=O)Cn3nc(C(=O)N4C[C@@H](C)O[C@@H](C)C4)c4c3CC3CC43)CC2)c1C` (stereo partly drawn) [Example 310, 2-{3-[(2R,6S)-2,6-dimethylmorpholine-4-carbonyl]-3b-4,4a,5-tetrahydro-1H-cyclopropa[3,4]cyclopenta[1,2-c]pyrazol-1-yl}-1-[4-(2,3-dimethylphenyl)piperazin-1-yl]ethan-1-one], the IC50 was 1.86 nM. To `Cc1cccc(N2CCN(C(=O)Cn3nc(C(=O)N4C[C@@H](C)O[C@@H](C)C4)c4c3C3CC3C4)CC2)c1C` (stereo partly drawn) [Example 311, 2-{3-[(2R,6S)-2,6-dimethylmorpholine-4-carbonyl]-4,4a,5,5a-tetrahydro-1H-cyclopropa[4,5]cyclopenta[1,2-c]pyrazol-1-yl}-1-[4-(2,3-dimethylphenyl)piperazin-1-yl]ethan-1-one] belongs 4.39 nM; to `Cc1c(Cl)cccc1N1CCN(C(=O)Cn2nc(C(=O)N3CCC(OCCO)CC3)c3c2C[C@H]2C[C@@H]32)C2(CC2)C1` [Example 312, 1-(7-(3-chloro-2-methylphenyl)-4,7-diazaspiro[2.5]octan-4-yl)-2-((3bR,4aR)-3-(4-(2-hydroxyethoxy)piperidine-1-carbonyl)-3b,4,4a,5-tetrahydro-1H-cyclopropa[3,4]cyclopenta[1,2-c]pyrazol-1-yl)ethan-1-one], 1.74 nM; to `Cc1c(Cl)cccc1N1CCN(C(=O)Cn2nc(C(=O)N3CCC(NCCO)CC3)c3c2C[C@H]2C[C@@H]32)C2(CC2)C1` [Example 313, 1-[7-(3-chloro-2-methylphenyl)-4,7-diazaspiro[2.5]octan-4-yl]-2-[(3bR,4aR)-3-{4-[(2-hydroxyethyl)amino]piperidine-1-carbonyl}-3b,4,4a,5-tetrahydro-1H-cyclopropa[3,4]cyclopenta[1,2-c]pyrazol-1-yl]ethan-1-one], 67.5 nM. The value for `Cc1c(Cl)cccc1N1CCN(C(=O)Cn2nc(C(=O)N3CCN(CCO)CC3)c3c2C[C@H]2C[C@@H]32)C2(CC2)C1` [Example 316, 1-[7-(3-chloro-2-methylphenyl)-4,7-diazaspiro[2.5]octan-4-yl]-2-{(3bR,4aR)-3-[4-(2-hydroxyethyl)piperazine-1-carbonyl]-3b,4,4a,5-tetrahydro-1H-cyclopropa[3,4]cyclopenta[1,2-c]pyrazol-1-yl}ethan-1-one] was 2.26 nM; that for `Cc1c(F)ccc(N2CCN(C(=O)Cn3nc(C(=O)N4CC[C@@H](O)[C@H](F)C4)c4c3C[C@H]3C[C@@H]43)C3(CC3)C2)c1C` [Example 318, 1-[7-(4-fluoro-2,3-dimethylphenyl)-4,7-diazaspiro[2.5]octan-4-yl]-2-{(3bR,4aR)-3-[(3R,4R)-3-fluoro-4-hydroxypiperidine-1-carbonyl]-3b,4,4a,5-tetrahydro-1H-cyclopropa[3,4]cyclopenta[1,2-c]pyrazol-1-yl}ethan-1-one] was 1.41 nM. Regarding `Cc1c(N2CCN(C(=O)Cn3nc(C(=O)N4CCC(O)(CF)CC4)c4c3C[C@H]3C[C@@H]43)CC2)cccc1C(F)(F)F` [Example 336, 2-((3bR,4aR)-3-(4-(fluoromethyl)-4-hydroxypiperidine-1-carbonyl)-3b,4,4a,5-tetrahydro-1H-cyclopropa[3,4]cyclopenta[1,2-c]pyrazol-1-yl)-1-(4-(2-methyl-3-(trifluoromethyl)phenyl)piperazin-1-yl)ethanone], the IC50 is 0.78 nM. To `Cc1c(N2CCN(C(=O)Cn3nc(C(=O)N4CCN(C(=O)CO)CC4)c4c3C[C@H]3C[C@@H]43)CC2)cccc1C(F)(F)F` [Example 337, 2-hydroxy-1-(4-((3bR,4aR)-1-(2-(4-(2-methyl-3-(trifluoromethyl)phenyl)piperazin-1-yl)-2-oxoethyl)-3b,4,4a,5-tetrahydro-1H-cyclopropa [3,4]cyclopenta[1,2-c]pyrazole-3-carbonyl)piperazin-1-yl)ethanone] belongs 2.85 nM; to `CC(=O)NC1CCN(C(=O)c2nn(CC(=O)N3CCN(c4cccc(C(F)(F)F)c4C)CC3)c3c2[C@@H]2C[C@@H]2C3)CC1` [Example 340, N-(1-((3bR,4aR)-1-(2-(4-(2-methyl-3-(trifluoromethyl)phenyl)piperazin-1-yl)-2-oxoethyl)-3b,4,4a,5-tetrahydro-1H-cyclopropa[3,4]cyclopenta[1,2-c]pyrazole-3-carbonyl)piperidin-4-yl)acetamide], 2.46 nM. To `Cc1c(N2CCN(C(=O)Cn3nc(C(=O)N4CCC(OCCO)CC4)c4c3C[C@H]3C[C@@H]43)CC2)cccc1C(F)(F)F` [Example 341, 2-((3bR,4aR)-3-(4-(2-hydroxyethoxy)piperidine-1-carbonyl)-3b,4,4a,5-tetrahydro-1H-cyclopropa[3,4]cyclopenta[1,2-c]pyrazol-1-yl)-1-(4-(2-methyl-3-(trifluoromethyl)phenyl)piperazin-1-yl)ethanone] belongs 1.64 nM; to `Cc1c(N2CCN(C(=O)Cn3nc(C(=O)N4CCO[C@H](CO)C4)c4c3C[C@H]3C[C@@H]43)CC2)cccc1C(F)(F)F` [Example 342, 2-((3bR,4aR)-3-((S)-2-(hydroxymethyl)morpholine-4-carbonyl)-3b,4,4a,5-tetrahydro-1H-cyclopropa[3,4]cyclopenta[1,2-c]pyrazol-1-yl)-1-(4-(2-methyl-3-(trifluoromethyl)phenyl)piperazin-1-yl)ethanone], 2.16 nM; to `Cc1c(N2CCN(C(=O)Cn3nc(C(=O)N4CCO[C@@H](CO)C4)c4c3C[C@H]3C[C@@H]43)CC2)cccc1C(F)(F)F` [Example 343, 2-((3bR,4aR)-3-((R)-2-(hydroxymethyl)morpholine-4-carbonyl)-3b,4,4a,5-tetrahydro-1H-cyclopropa [3,4]cyclopenta[1,2-c]pyrazol-1-yl)-1-(4-(2-methyl-3-(trifluoromethyl)phenyl)piperazin-1-yl)ethanone], 1.91 nM.

For `Cc1c(C(F)F)cccc1N1CCN(C(=O)Cn2nc(C(=O)N3CCN(C(=O)CO)CC3)c3c2C[C@H]2C[C@@H]32)CC1` [Example 344, 1-(4-(3-(difluoromethyl)-2-methylphenyl)piperazin-1-yl)-2-((3bR,4aR)-3-(4-(2-hydroxyacetyl)piperazine-1-carbonyl)-3b,4,4a,5-tetrahydro-1H-cyclopropa[3,4]cyclopenta[1,2-c]pyrazol-1-yl)ethanone], the IC50 came to 6.52 nM. To `Cc1c(C(F)F)cccc1N1CCN(C(=O)Cn2nc(C(=O)N3CCC(OCCO)CC3)c3c2C[C@H]2C[C@@H]32)CC1` [Example 345, 1-(4-(3-(difluoromethyl)-2-methylphenyl)piperazin-1-yl)-2-((3bR,4aR)-3-(4-(2-hydroxyethoxy)piperidine-1-carbonyl)-3b,4,4a,5-tetrahydro-1H-cyclopropa[3,4]cyclopenta[1,2-c]pyrazol-1-yl)ethanone] belongs 1.88 nM; to `Cc1c(C(F)F)cccc1N1CCN(C(=O)Cn2nc(C(=O)N3CCC(O)CC3)c3c2C[C@H]2C[C@@H]32)CC1` [Example 346, 1-(4-(3-(difluoromethyl)-2-methylphenyl)piperazin-1-yl)-2-((3bR,4aR)-3-(4-hydroxypiperidine-1-carbonyl)-3b,4,4a,5-tetahydro-1H-cyclopropa[3,4]cyclopenta[1,2-c]pyrazol-1-yl)ethanone], 0.86 nM; to `Cc1c(C(F)F)cccc1N1CCN(C(=O)Cn2nc(C(=O)N3CC[C@@H](O)[C@@H](F)C3)c3c2C[C@H]2C[C@@H]32)CC1` [Example 347, 1-(4-(3-(difluoromethyl)-2-methylphenyl)piperazin-1-yl)-2-((3bR,4aR)-3-((3S,4R)-3-fluoro-4-hydroxypiperidine-1-carbonyl)-3b,4,4a,5-tetrahydro-1H-cyclopropa[3,4]cyclopenta[1,2-c]pyrazol-1-yl)ethanone], 2.73 nM. The value for `Cc1c(C(F)F)cccc1N1CCN(C(=O)Cn2nc(C(=O)N3CC[C@H](O)[C@H](F)C3)c3c2C[C@H]2C[C@@H]32)CC1` [Example 348, 1-(4-(3-(difluoromethyl)-2-methylphenyl)piperazin-1-yl)-2-((3bR,4aR)-3-((3R,4S)-3-fluoro-4-hydroxypiperidine-1-carbonyl)-3b,4,4a,5-tetrahydro-1H-cyclopropa[3,4]cyclopenta[1,2-c]pyrazol-1-yl)ethanone] was 1.38 nM; that for `Cc1c(C(F)F)cccc1N1CCN(C(=O)Cn2nc(C(=O)N3CCO[C@H](CO)C3)c3c2C[C@H]2C[C@@H]32)CC1` [Example 349, 1-(4-(3-(difluoromethyl)-2-methylphenyl)piperazin-1-yl)-2-((3bR,4aR)-3-((S)-2-(hydroxymethyl)morpholine-4-carbonyl)-3b,4,4a,5-tetrahydro-1H-cyclopropa[3,4]cyclopenta[1,2-c]pyrazol-1-yl)ethanone] was 4.46 nM; that for `Cc1c(C(F)F)cccc1N1CCN(C(=O)Cn2nc(C(=O)N3CCO[C@@H](CO)C3)c3c2C[C@H]2C[C@@H]32)CC1` [Example 350, 1-(4-(3-(difluoromethyl)-2-methylphenyl)piperazin-1-yl)-2-((3bR,4aR)-3-((R)-2-(hydroxymethyl)morpholine-4-carbonyl)-3b,4,4a,5-tetrahydro-1H-cyclopropa[3,4]cyclopenta[1,2-c]pyrazol-1-yl)ethanone] was 5.66 nM.

For `Cc1c(Cl)cccc1N1CCN(C(=O)Cn2nc(C(=O)N3CCC(O)C(C)C3)c3c2C[C@H]2C[C@@H]32)CC1` (stereo partly drawn) [Example 354, 1-(4-(3-chloro-2-methylphenyl)piperazin-1-yl)-2-((3bR,4aR)-3-(4-hydroxy-3-methylpiperidine-1-carbonyl)-3b,4,4a,5-tetrahydro-1H-cyclopropa[3,4]cyclopenta[1,2-c]pyrazol-1-yl)ethanone], the IC50 was 2.41 nM.
